In patent US9522908B2, “Ezrin inhibitors and methods of making and using” (Georgetown University, priority 2010, dated 2016):

What was measured:
zebrafish embryos = assay: Zebrafish embryo development assay; assay type: in vivo, Zebrafish (Danio rerio)
Procedure: Animals. Zebrafish (Danio rerio) were raised, maintained and crossed as described before (Westerfield, M. University of Oregon Press, Eugene. Or., 1993). Development of embryos was studied at 28° C. and staging was determined by morphological characteristics (Kimmel, C. B., et al., Dev. Dyn. 203, 253-310 (1995)).
A translation blocking anti-ezrin morpholino oligonucleotide (MO), described and validated by Link et al. (Link, V., et al., J. Cell Sci., 119, 2073-2083 (2006)), MO1, 5′-[…] (SEQ ID NO:1), was synthesized by Gene-Tools, LCC (Philomath, Oreg.). MOs were microinjected into one to four cell stage embryos.
Zebrafish embryos were arrayed, three per well, in 96-well plates. Compounds were added at 1-33 μM concentrations. Embryos were observed, and photographed, at 70% epiboly, 24-28 hours post fertilization (hpf) and 48 hpf.

[1] = system: high ezrin expressed K7M2 cells; assay: Electric cell migration system, K7M2 cells; assay type: cell-based; settings: non-toxic concentration; compared to NSC 668394
Procedure: (§1) Anti-migration potential of the embodied compounds were validated using an electric cell migration system. High ezrin expressed K7M2 cells and low ezrin expressed K12 cells were treated with non-toxic concentrations of a compound and their corresponding anti-migration activity was measured. Data is represented as the ratio of compound K7M2 anti-migration activity divided by the K12 anti-migration activity. The X-axis details the non-toxic concentration of the compound used in the study.

[2] = system: low ezrin expressed K12 cells; assay: Electric cell migration system, K12 cells; assay type: cell-based; settings: non-toxic concentration
Procedure: as §1

5′-CGCGAACATTTACTGGTTTAGG (SEQ ID NO:1) (all phosphorodiamidate morpholino (PMO)) [MO1]
embryos with epiboly defects at 90% epiboly stage (zebrafish embryos; 3 ng injected): 42% | embryos with epiboly defects at 90% epiboly stage (zebrafish embryos; 6 ng injected): 69% | embryos with epiboly defects at 90% epiboly stage (zebrafish embryos; 12 ng injected): 69%

COc1ccc(CCNC2=CC(=O)c3cccnc3C2=O)cc1Cl [GK2-057]
anti-migratory activity on K7M2 cells [1]: greater anti-migratory activity | effect on K12 cell line migration [2]: benign
